Where “and” joins values, the source holds several entries; their conditions need not be identical. Equal values may be shown once. Read-outs that look alike come from different tables or passages of the source.

Test [1] concerns epitope-specific CD8+ PBMC of SIV-infected animals. In kind it is cell-based, rhesus macaque. The following applies: for avidity of CTL response: PBMC specific for late escaping epitopes; for EC50: read-out: ½maximal IFN-γ release (peptide concentration).
The subject of test [2] is Tat SL8- and Gag CM9-specific CTL lines. The experiment in a line: 51Cr-release cytotoxicity assay with peptide dilutions, in vitro CTL lines. In kind it is cell-based, rhesus macaque. The following applies: CTL lines generated with high (1 μM) and low (1 nM) peptide; read-out: ½maximal specific lysis (peptide concentration).
The test system of test [3] is epitope-specific CTL lines. The experiment in a line: Intracellular IFN-γ staining (ICS) with peptide dilutions, in vitro CTL lines. Type of test: cell-based, rhesus macaque. The following applies: for avidity of CTL response: CTL lines against acute escaped epitopes.
Test [4] addresses rhesus MHC class I molecule Mamu-A*01 (rhesus macaque). The experiment in a line: competition with 125I-labeled […] for Mamu-A*01; (1.0-relative binding average)x100.
Test [5] shares this target. The experiment in a line: competition with 125I-labeled […] for Mamu-A*01; relative to […].
For test [6] the target is unchanged.
For test [7], the system named is rhesus MHC class I molecule Mamu-A*01. The experiment in a line: Mamu-A*01 peptide binding assay (inhibition of binding of a radiolabeled probe peptide). On the set-up: species or system rhesus macaque. The following applies: for % Binding reduction: (1.0-relative binding average)x100, versus index peptide STPESANL; for IC50: soluble Mamu-A*01; for Relative Binding Average: relative to the binding affinity of Tat28-35 STPESANL to Mamu-A*01. As to the method: Quantitative assays for the binding of peptides to soluble Mamu-A*01 molecules on the basis of the inhibition of binding of a radiolabeled standard probe peptide to detergent-solubilized MHC molecules were performed as previously described (Allen, T. M., et al., J. Immunol. 160:6062-6071, 1998). A position 1 C→A analog of the SIV gag 181-190 peptide ([…]) was utilized as the radiolabeled probe. In the case of competitive assays, the concentration of peptide yielding 50% inhibition of the binding of the radiolabeled probe peptide was calculated. Peptides were initially tested at one or two high doses. The IC50 of peptides yielding positive inhibition were then determined in subsequent experiments, in which two to six further dilutions were tested, as necessary. Since under the conditions to be utilized, where [label]<[MHC] and IC50 ≧[MHC], the measured IC50 values are reasonable approximations of the true Kd values. Each competitor peptide was tested in two to four completely independent experiments. As a positive control, in each experiment the unlabeled version of the radiolabeled probe was tested and its IC50 measured.

Test [8] deals with CTL lines stimulated with the SL8 index peptide. The experiment in a line: CTL analyses of SL8-stimulated T-cell lines against index and variant peptides. The following applies: E:T ratio 25:1, three peptide dilutions. Type of test: cell-based, rhesus macaque. The protocol:
FIG. 3 is a set of six graphs describing CTL analyses of CD8-positive T-lymphocyte cell lines stimulated with SL8 peptide. Cell lines were stimulated with the index peptide (SL8) and autologous B-LCL. After 2 weeks in culture, these T-cell lines were used in CTL analyses at an Effector:Target (E:T) ratio of 25:1 with the index peptide and the variants. Three different dilutions of peptides were tested.
CTL cultures were established from peripheral blood samples of SIV-infected rhesus macaques drawn in EDTA tubes and CTL were cultured and assayed as previously described (Evans, D. T., et al., supra, 1999).

[9] abbreviates: competition against 125-labeled peptide […].
The mark [10] stands for this setting: competition against 125-labeled peptide ATPYDINQML

With ARRHRILDIYL [Nef_AL11], the “avidity of CTL response” value in test [1] (ICS) is on record as “low avidity”.
Consider CTPYDINQM [Gag CM9], for which the EC50 was 1 to 10 nM and 1 to 40 nM in test [2]; 8 nM in test [1].
On to GDYKLVEI [Env_GI8], for which the “avidity of CTL response” value in test [1] (ICS) is recorded as “low avidity”.
GLDKGLSSL [GL9]: the “avidity of CTL response” value in test [3] is “high avidity”.
With KRQQELLRL [Env_KL9], the “avidity of CTL response” value in test [1] (ICS) is listed as “low avidity”.
For STPESANL, the EC50 is less than 0.5 nM in test [3] (CTL lines generated in vitro, read-out: ½maximal IFN-γ production (peptide concentration)); 0.05 to 0.1 nM in test [2]; 0.11 nM in test [1] (epitope-specific PBMC, ICS).
For the substance “Tat28-35 variant ------P (proline at P8) (peptide)”, the % Binding reduction in test [4] is greater than 99%. The same substance registered a Relative Binding Average in test [5] of 0.009.
The substance “Tat28-35 variant ------Q (glutamine at P8) (peptide)” showed a % Binding reduction in test [4] greater than 99%. This substance came in with a Relative Binding Average in test [5] of 0.003.
With “Tat28-35 variant ------R (arginine at P8) (peptide)”, the % Binding reduction in test [4] is greater than 99%. In test [5], this substance registered a Relative Binding Average of 0.003.
The corresponding values for “Tat28-35 variant ----L-- (leucine at P5) (peptide)” are 85% and 0.155.
Substance “Tat28-35 variant -I---- (isoleucine at P2) (peptide)” showed a % Binding reduction in test [4] greater than 99%. The same substance returned a Relative Binding Average in test [5] of 0.009.
“Tat28-35 variant P------ (proline at P1) (peptide)” showed a % Binding reduction in test [6] of 67%. The Relative Binding Average in test [5] was found to be 0.43.
On to YTSGPGIRY [YY9], for which the “avidity of CTL response” value in test [3] is “high avidity”.
“variant of the Tat STPESANL epitope with arginine at P8 [------R]”: in test [7], the “% Binding reduction” value is greater than 99% and the “Relative Binding Average” value worked out at 0.003. In addition, in test [7] (setting [9]), the IC50 (in general, the midpoint of a concentration-inhibition curve) amounted to 15100 nM.
For the substance “variant of the Tat STPESANL epitope with glutamine at P8 [------Q]”, in test [7], the “% Binding reduction” value is on record as greater than 99% and the “Relative Binding Average” value was 0.003. The substance also yielded an IC50 in test [7] (setting [10]) of 13200 nM.
For the substance “variant of the Tat STPESANL epitope with isoleucine at P2 [-I----]”, in test [7], the “% Binding reduction” value is on record as greater than 99% and the “Relative Binding Average” value is listed as 0.009. The IC50 in test [7] (setting [9]) amounted to 4610 nM.
As for “variant of the Tat STPESANL epitope with leucine at P5 [----L--]”, the figures for the “% Binding reduction” value in test [7], in test [7] (listed as leucine at P5) and in test [7] (listed as leucine substitution at P5) were 85%, greater than 80% and “more than 80%”, respectively. For the same substance, the half-inhibitory concentration (IC50) in test [7] (setting [10]) was found to be 281 nM. Moreover, the “Relative Binding Average” value in test [7] amounted to 0.155. For the same substance, the “CTL recognition / sensitizing targets for CTL lysis” value in test [8] is listed as “least efficient at sensitizing targets for CTL lysis”.
With “variant of the Tat STPESANL epitope with proline at P1 [P------]”, the “% Binding reduction” value in test [7] is recorded as 67%; in test [7] (listed as proline at P1) it was “more than 50%”; in test [7] (listed as proline substitution at P1), “more than 50%”. Moreover, the IC50 in test [7] (setting [9]) came out at 100 nM. Further, in test [7], the “Relative Binding Average” value is recorded as 0.43.
In the case of “variant of the Tat STPESANL epitope with proline at P8 [------P]”, in test [7], the “% Binding reduction” value is on record as greater than 99% and the “Relative Binding Average” value is 0.009. The IC50 in test [7] (setting [9]) came out at 4570 nM.

(Values after patent publication US20030198941A1, “Method for making an HIV vaccine” (priority 2000, published 2003).)
